Like-named read-outs stand apart in the source and are kept apart here.
Experiment: Pharmacokinetic assessment in neutropenic A. baumannii-infected mice
Assay type: in vivo, mouse
Conditions: for Cmax / AUC(0-t) / clearance / half-life: single dose; for TimeHigh: time above the MIC of the infective strain (2 µg/mL)
Source text: Pharmacokinetic assessment
The protocol to assess fabimycin’s pharmacokinetic properties in A. baumanii-infected mice (strain: AR-0088) was approved by the IACUC at Pharmacology Discovery Services, Taiwan, Ltd. (protocol mumber: PK001-09212018). In this study, neutropenic female BALB/c mice 7-8 weeks in age from BioLASCO Taiwan (AAALAC-certified Charles River Licensee) weighing 18 ± 2 grams were used.10 All animals were specific pathogen free. Mice were rendered neutropenic via cyclophosphamide (CP) administration by two intraperitoneal (IP) injections following a standard method for mouse thigh infection models.11 The first CP dose, 150 mg/kg, was administered at four days before infection (Day –4); and the second, 100 mg/kg, at 24 h before infection (Day –1), prior to infection on Day 0.
To inoculate the mice, A. baumannii cultures were first generated by seeding brain heart infusion (BHI, 20 mL) with an aliquot (0.2 mL) of a single-used glycerol stock of A. baumannii AR-0088 stored at -80 °C and incubating at 35-37 °C with shaking (250 rpm) for 6 hours. An aliquot of this culture (1.0 mL) was used to seed fresh BHI media (99 mL) and this shaken (250 rpm) at 35-37 °C for 16 hours. Bacterial cells were harvested by centrifuging 20 mL of this outgrowth culture (3,500 x g) for 15 minutes and re-suspending in fresh cold phosphate buffered saline (PBS, 10 mL). The optical density at 620 nm was measured and used to guide dilutions. PBS suspensions were stored on ice for no more than 1 hour prior to animal inoculation. The bacterial count in the challenge organism suspension was enumerated by dilution plating on to nutrient gar plates followed by 20-24 hour incubation. The target inoculum is 1.0 * 10^5 CFU/mouse for the strain […]
Fabimycin was IV administered once followed by terminal blood sampling at 8 time points with cardiac puncture (5, 15, 30, 45, 60, 120, 240, and 480 minutes). Terminal blood collection from cardiac puncture was conducted under CO2 euthanasia. Blood, 0.3-0.4 mL, was drawn into tubes coated with K2EDTA, mixed gently and kept on ice and centrifuged at 12,000 × g for 5 minutes at 4°C within 1 hour of collection. The plasma was harvested and stored at -80 °C until further processing. Thigh tissues were aseptically harvested from the left thigh of the infected animals, weighed, and homogenized in sterile PBS (3 mL, pH 7.4) with a Polytron homogenizer. The thigh homogenate was collected and stored at -80 °C until further processing.
For LC-MS/MS sample processing a 20 µL aliquot of each plasma and thigh sample was transferred to 96 well plate. A 300 µL aliquot of 0.01 ng/µL internal standard (IS), oxybutynin, in MeOH/FA=95/5 was added to each tube except for the double blank and carryover controls. A 300 μL aliquot of MeOH/FA=95/5, without oxybutynin, was added to the double blank and carryover assay wells. The equilibrated mixture was vortexed for 1 min and then centrifuged at 4,000 rpm for 5 min at 20 °C to precipitate protein. After centrifugation, 50 µL of the supernatant was transferred to a new well of the 96 well plate and 500 μL H2O/FA=100/0.2 added for LC-MS/MS analysis. Plasma and thigh samples from treatment groups and the calibration curve samples were processed on the same test occasion using the same procedure.
The calibration curve samples were generated by spiking aliquots of drug-free plasma or thigh homogenates with the test article dilution. The quality control (QC) samples, QH (high), QM (medium) and QL (low) were each assayed in duplicate. The PK parameters for the IV doses were obtained from the non-compartmental analysis (NCA) of the plasma and thigh homogenate data using WinNonlin (Phoenix® Build 8.3.1.5014).
LC-MS/MS runs were conducted with a SCIEX Triple Quad™ 5500+ mass sp ectrometer. Method development was conducted to determine appropriate conditions for LC-MS/MS analysis of fabimycin. A titration of a stock solution was performed to correlate peak areas and the corresponding concentration. […]

[1] = female, BALB/c, mouse, plasma, 75 mg/kg, IV
[2] = female, BALB/c, mouse, plasma, 100 mg/kg, IV
[3] = female, BALB/c, mouse, thigh, 75 mg/kg, IV
[4] = female, BALB/c, mouse, thigh, 100 mg/kg, IV

## Cc1c(CN(C)C(=O)/C=C/c2cnc3c(c2)CC[C@H](N)C(=O)N3)oc2ccccc12 [fabimycin]
female, BALB/c, mouse, plasma, iv, 75 mg/kg, plasma, 75 mg/kg, read-out: Cmax
  Cmax: 34600 ng/mL
female, BALB/c, mouse, plasma, iv, 100 mg/kg, plasma, 100 mg/kg, read-out: Cmax
  Cmax: 47300 ng/mL
female, BALB/c, mouse, thigh, iv, 75 mg/kg, thigh, 75 mg/kg, read-out: Cmax
  Cmax: 33000 ng/g
female, BALB/c, mouse, thigh, iv, 100 mg/kg, thigh, 100 mg/kg, read-out: Cmax
  Cmax: 60200 ng/g
[1]
  AUC(0-t): 45400 ng·h/mL
  clearance: 26.9 mL/min/kg
  half-life: 1.4 h
[2]
  AUC(0-t): 69800 ng·h/mL
  clearance: 23.5 mL/min/kg
  half-life: 1.4 h
[3]
  AUC(0-t): 65200 ng·h/mL
  clearance: 18.9 mL/min/kg
  half-life: 1.39 h
[4]
  AUC(0-t): 112000 ng·h/mL
  clearance: 14.7 mL/min/kg
  half-life: 1.24 h
plasma, 75 mg/kg, IV
  TimeHigh: 5.70 h
plasma, 100 mg/kg, IV
  Cmax: 47000 ng/mL
  TimeHigh: 6.67 h
thigh, 75 mg/kg, IV
  TimeHigh: over 6 h
thigh, 75 mg/kg, IV, listed as Fabimycin
  TimeHigh: 6.22 h
thigh, 100 mg/kg, IV
  TimeHigh: 7.19 h

Reference: paper PMC9413440, “An Iterative Approach Guides Discovery of the FabI Inhibitor Fabimycin, a Late-Stage Antibiotic Candidate with In Vivo Efficacy against Drug-Resistant Gram-Negative Infections” (ACS Central Science, 2022)
